Data on 4 compounds can be found in ChEMBL document CHEMBL3860080, “Development of BCR-ABL degradation inducers via the conjugation of an imatinib derivative and a cIAP1 ligand” (Bioorg Med Chem Lett, 2016).

For data set [1], the target named is T1, Bcr/Abl fusion protein (Homo sapiens) (UniProt P00519+P11274). The experiment in a line: Inhibition of BCR-ABL signaling pathway in human K562 cells assessed as suppression of CrkL phosphorylation at 100 uM after 8 hrs in presence of imatinib by Western blot analysis. It counts as cell-based.
Data set [2] can be described thus: Effect on BCR-ABL protein levels in human K562 cells assessed as BCR-ABL to beta-tubulin ratio at 100 uM after 8 hrs in presence of imatinib by Western blot analysis relative to control. To be noted: k562, 8 h. Format: ADME, cell-based.
The target in data set [3] is T1, Bcr/Abl fusion protein (Homo sapiens). The experiment in a line: Inhibition of BCR-ABL signaling pathway in human K562 cells assessed as suppression of STAT5 phosphorylation at 100 uM after 8 hrs in presence of imatinib by Western blot analysis. Format: cell-based.
For data set [4] the target is unchanged. Briefly: Inhibition of BCR-ABL phosphorylation in human K562 cells at 100 uM after 8 hrs in presence of imatinib by Western blot analysis. Format: cell-based.
Data set [5] addresses T2, Baculoviral IAP repeat-containing protein 2/Tyrosine-protein kinase ABL1/Breakpoint cluster region protein (Homo sapiens) (UniProt P00519+P11274+Q13490). Briefly: Induction of cIAP1-mediated BCR-ABL protein degradation in human K562 cells assessed as BCR-ABL to beta-tubulin ratio at 100 uM after 24 hrs by Western blot analysis relative to control. It counts as cell-based.

A further data set relates to K562. Briefly: Cytotoxicity against human K562 cells assessed as cell growth inhibition at 30 to 100 uM after 24 hrs by cell counting kit-8 assay. It counts as functional, cell-based.
Data set [6] has as its target T2, Baculoviral IAP repeat-containing protein 2/Tyrosine-protein kinase ABL1/Breakpoint cluster region protein (Homo sapiens). Briefly: Induction of cIAP1-mediated BCR-ABL protein degradation in human K562 cells assessed as BCR-ABL to beta-tubulin ratio at 30 uM after 24 hrs by Western blot analysis relative to control. Format: cell-based.
Data set [7] shares this target. The experiment in a line: Induction of cIAP1-mediated BCR-ABL protein degradation in human K562 cells assessed as BCR-ABL to beta-tubulin ratio at 100 uM after 8 hrs by Western blot analysis relative to control. Format: cell-based.
For data set [8] the target is unchanged. The experiment in a line: Induction of cIAP1-mediated BCR-ABL protein degradation in human K562 cells assessed as BCR-ABL to beta-tubulin ratio at 30 uM after 8 hrs by Western blot analysis relative to control. It counts as cell-based.
A short description of data set [9]: Effect on BCR-ABL protein levels in human K562 cells assessed as BCR-ABL to beta-tubulin ratio at 100 uM after 8 hrs by Western blot analysis relative to control. Format: ADME, cell-based. To be noted: k562, 8 h.
Data set [10] deals with T1, Bcr/Abl fusion protein (Homo sapiens). Briefly: Inhibition of BCR-ABL signaling pathway in human K562 cells assessed as suppression of STAT5 phosphorylation at 100 uM after 8 hrs by Western blot analysis. It counts as cell-based.
The target is the same in data set [11]. Briefly: Inhibition of BCR-ABL signaling pathway in human K562 cells assessed as suppression of CrkL phosphorylation at 100 uM after 8 hrs by Western blot analysis. Format: cell-based.
For data set [12] the target is unchanged. Briefly: Inhibition of BCR-ABL phosphorylation in human K562 cells at 100 uM after 8 hrs by Western blot analysis. Format: cell-based.
Data set [13] deals with T2, Baculoviral IAP repeat-containing protein 2/Tyrosine-protein kinase ABL1/Breakpoint cluster region protein (Homo sapiens). Briefly: Induction of cIAP1-mediated BCR-ABL protein degradation in human K562 cells after 8 hrs by Western blot analysis. Format: cell-based.
Data set [14] in a line: Cytotoxicity against human K562 cells assessed as cell growth at 30 to 100 uM after 24 hrs by cell counting kit-8 assay relative to control. It counts as functional.

The source made the active and inactive calls. The rule behind the calls is not given here.

T2 sequence (P00519 whole entry, looked up): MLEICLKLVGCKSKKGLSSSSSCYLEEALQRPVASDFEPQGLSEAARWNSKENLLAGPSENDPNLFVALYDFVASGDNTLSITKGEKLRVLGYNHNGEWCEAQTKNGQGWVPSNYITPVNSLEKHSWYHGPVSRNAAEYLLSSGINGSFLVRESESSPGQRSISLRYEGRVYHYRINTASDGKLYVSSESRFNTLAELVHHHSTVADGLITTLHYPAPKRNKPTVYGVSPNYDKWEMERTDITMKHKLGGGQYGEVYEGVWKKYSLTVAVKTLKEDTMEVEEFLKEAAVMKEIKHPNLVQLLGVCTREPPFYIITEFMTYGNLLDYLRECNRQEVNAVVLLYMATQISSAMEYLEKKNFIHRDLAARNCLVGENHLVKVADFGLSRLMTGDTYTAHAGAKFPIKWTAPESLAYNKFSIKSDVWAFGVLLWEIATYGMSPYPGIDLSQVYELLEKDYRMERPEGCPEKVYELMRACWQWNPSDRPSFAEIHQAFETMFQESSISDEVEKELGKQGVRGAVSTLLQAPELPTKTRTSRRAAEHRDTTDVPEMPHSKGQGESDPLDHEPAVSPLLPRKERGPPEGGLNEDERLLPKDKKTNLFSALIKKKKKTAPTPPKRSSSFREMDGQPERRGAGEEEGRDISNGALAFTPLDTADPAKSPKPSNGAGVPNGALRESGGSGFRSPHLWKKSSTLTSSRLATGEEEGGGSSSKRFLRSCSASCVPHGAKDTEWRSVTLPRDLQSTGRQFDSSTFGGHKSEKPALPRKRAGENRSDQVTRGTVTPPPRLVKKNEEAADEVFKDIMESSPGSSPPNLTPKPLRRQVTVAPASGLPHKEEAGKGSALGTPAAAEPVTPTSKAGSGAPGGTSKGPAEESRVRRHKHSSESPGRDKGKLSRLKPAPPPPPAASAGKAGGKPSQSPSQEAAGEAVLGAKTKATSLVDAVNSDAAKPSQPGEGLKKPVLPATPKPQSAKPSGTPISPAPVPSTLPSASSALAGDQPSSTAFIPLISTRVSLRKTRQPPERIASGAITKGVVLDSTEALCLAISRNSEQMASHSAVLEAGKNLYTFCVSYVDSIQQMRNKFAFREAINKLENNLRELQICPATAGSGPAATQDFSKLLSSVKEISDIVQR
T2 sequence (P11274 whole entry, looked up): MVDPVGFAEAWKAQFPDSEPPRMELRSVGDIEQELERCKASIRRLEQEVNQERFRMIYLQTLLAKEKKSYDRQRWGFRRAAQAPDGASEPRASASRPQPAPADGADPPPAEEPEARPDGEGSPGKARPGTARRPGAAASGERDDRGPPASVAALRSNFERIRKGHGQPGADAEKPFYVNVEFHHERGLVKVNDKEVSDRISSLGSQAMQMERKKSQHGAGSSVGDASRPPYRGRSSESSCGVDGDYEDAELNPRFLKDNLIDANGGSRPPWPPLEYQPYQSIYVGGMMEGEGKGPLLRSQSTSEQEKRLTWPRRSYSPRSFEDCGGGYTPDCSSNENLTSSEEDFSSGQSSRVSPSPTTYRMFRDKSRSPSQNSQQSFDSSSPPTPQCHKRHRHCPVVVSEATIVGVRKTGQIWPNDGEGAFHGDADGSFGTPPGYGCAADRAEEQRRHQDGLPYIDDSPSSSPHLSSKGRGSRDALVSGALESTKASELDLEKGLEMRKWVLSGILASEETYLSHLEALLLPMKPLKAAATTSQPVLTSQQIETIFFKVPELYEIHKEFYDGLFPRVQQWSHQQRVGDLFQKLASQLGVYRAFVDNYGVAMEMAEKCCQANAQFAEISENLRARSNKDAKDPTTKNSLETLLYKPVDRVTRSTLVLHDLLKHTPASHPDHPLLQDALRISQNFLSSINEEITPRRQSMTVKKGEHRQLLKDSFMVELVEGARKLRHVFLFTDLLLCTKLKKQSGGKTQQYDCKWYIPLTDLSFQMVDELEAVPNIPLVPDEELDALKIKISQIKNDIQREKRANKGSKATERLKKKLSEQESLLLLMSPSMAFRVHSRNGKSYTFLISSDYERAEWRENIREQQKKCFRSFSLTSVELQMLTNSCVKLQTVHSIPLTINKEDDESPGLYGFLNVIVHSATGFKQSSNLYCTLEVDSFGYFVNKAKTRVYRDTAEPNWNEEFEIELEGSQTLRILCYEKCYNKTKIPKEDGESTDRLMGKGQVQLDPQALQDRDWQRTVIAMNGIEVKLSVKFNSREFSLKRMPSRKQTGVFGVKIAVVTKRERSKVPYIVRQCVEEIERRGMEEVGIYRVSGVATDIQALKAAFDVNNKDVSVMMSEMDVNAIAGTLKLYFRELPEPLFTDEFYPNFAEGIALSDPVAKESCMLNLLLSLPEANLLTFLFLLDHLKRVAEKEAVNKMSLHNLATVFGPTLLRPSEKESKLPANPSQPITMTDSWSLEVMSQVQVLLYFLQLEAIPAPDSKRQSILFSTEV
T2 sequence (Q13490 whole entry, looked up): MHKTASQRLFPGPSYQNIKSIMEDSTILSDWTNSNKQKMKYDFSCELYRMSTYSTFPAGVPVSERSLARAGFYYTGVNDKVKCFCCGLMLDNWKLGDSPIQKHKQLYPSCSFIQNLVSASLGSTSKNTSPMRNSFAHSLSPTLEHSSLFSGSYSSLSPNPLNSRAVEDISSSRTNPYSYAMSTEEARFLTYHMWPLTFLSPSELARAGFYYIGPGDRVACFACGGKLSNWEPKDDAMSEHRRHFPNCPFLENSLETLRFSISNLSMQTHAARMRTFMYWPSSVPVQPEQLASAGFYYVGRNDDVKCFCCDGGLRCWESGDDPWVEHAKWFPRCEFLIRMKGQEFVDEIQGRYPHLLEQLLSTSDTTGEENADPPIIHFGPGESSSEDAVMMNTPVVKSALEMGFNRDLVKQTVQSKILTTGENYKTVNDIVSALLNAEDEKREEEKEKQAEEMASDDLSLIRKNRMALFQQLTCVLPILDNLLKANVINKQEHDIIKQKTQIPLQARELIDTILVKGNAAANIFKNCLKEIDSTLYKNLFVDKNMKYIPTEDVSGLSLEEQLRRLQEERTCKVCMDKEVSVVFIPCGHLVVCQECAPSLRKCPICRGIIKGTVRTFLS
T1 sequence (P00519 whole entry, looked up, the tested form may be a part): as the sequence (P00519 whole entry, looked up) above
T1 sequence (P11274 whole entry, looked up, the tested form may be a part): as the sequence (P11274 whole entry, looked up) above

Take `COC(=O)[C@H](CC(C)C)NC(=O)[C@@H](O)[C@H](N)Cc1ccccc1` [BESTATIN METHYL ESTER]: the inhibition entry in data set [1], in [3] and in data set [4] was “Active” each time. In addition, the Activity in data set [2] is on record as 99%.
Turning to `Cc1ccc(NC(=O)c2ccc(CNC(=O)CCCCCCCCCCNC(=O)[C@H](CC(C)C)NC(=O)[C@@H](O)[C@H](N)Cc3ccccc3)cc2)cc1Nc1nccc(-c2cccnc2)n1`, the Activity came to 8% in data set [5], 14% in data set [6], 94% in data set [7] and 77% in [8]. Moreover, the “growth inhibition (GI)” value in the data set with K562 was “Active”.
In the case of `Cc1ccc(NC(=O)c2ccc(CNC(=O)CCCCCCNC(=O)[C@H](CC(C)C)NC(=O)[C@@H](O)[C@H](N)Cc3ccccc3)cc2)cc1Nc1nccc(-c2cccnc2)n1.Cl`, the Activity in data set [9] was 27%; in data set [5], 3%; in data set [6], 23%; in data set [7], 17%; in data set [8], 59%; in data set [13] it was “Dose-dependent effect”. Further, the “growth inhibition (GI)” value in the data set with K562 is “Active”. Further, the inhibition entry in data set [10], in data set [11] and in data set [12] was “Active” in each case.
On to `Cc1ccc(NC(=O)c2ccc(CNC(=O)CCCCNC(=O)[C@H](CC(C)C)NC(=O)[C@@H](O)[C@H](N)Cc3ccccc3)cc2)cc1Nc1nccc(-c2cccnc2)n1.Cl`, for which the Activity in data set [5] worked out at 81%; in [14] it was 100%; in data set [6], 105%; in data set [7], 113%; in data set [8], 121%.
